In patent US5998427A, “Androstenones” (Glaxo Wellcome Inc., priority 1998, dated 1999):

Assays:
[1] = molecular target: T1, human type 1 5α-reductase (Homo sapiens, UniProt P18405); experiment: Inhibition of human type 1 5α-reductase (conversion of testosterone to DHT, microsomes of baculovirus infected SF9 cells); format: biochemical; details: pH 7.0, 100 nM testosterone, 10 min preincubation, 10-120 min; read-out: IC50 Human Type 1 5AR
T1 construct: made in house; host or cells: recombinant baculovirus infected SF9 cells (microsomes)
T1 sequence (P18405 1-259): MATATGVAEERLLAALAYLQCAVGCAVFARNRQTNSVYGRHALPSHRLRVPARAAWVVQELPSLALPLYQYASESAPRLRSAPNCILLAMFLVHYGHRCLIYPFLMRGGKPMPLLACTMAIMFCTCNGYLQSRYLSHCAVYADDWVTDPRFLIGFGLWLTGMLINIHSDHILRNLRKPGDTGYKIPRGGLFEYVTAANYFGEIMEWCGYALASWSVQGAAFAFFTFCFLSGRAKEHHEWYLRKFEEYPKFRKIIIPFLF
Protocol: (§1) Enzyme activities may be determined using microsomes derived from: 1) prostate tissue from benign prostatic hyperplasia (BPH) patients; 2) recombinant baculovirus infected SF9 cells that express human type 1 5α-reductase; or 3) recombinant baculovirus infected SF9 cells that express human type 2 5α-reductase. Microsomes were prepared by homogenization of the tissue or cells, followed by differential centrifugation of the homogenate. Microsome extracts were incubated with varying concentrations of [1,2,6,7-^3 H]-testosterone, 1 mM NADPH, and varying amounts of the compounds of formula (I,) i.e. a test compound, in buffer containing a NADPH regenerating system capable of maintaining NADPH concentrations for a period of time within the range 0.5-240 minutes. Corresponding incubations were carried out with no test compound as a control study.
(§2) For type 1 IC50 measurements, assay components except testosterone were preincubated for 10 minutes at pH 7.0, and following the addition of 100 nM testosterone the assays were allowed to proceed for 10-120 minutes. For type 2 IC50 measurements, assay components except testosterone were preincubated for 20 minutes at pH 6.0, and following the addition of 8 nM testosterone the assays were allowed to proceed for 20-40 minutes. […]

Human Adrenal 3BHSD = molecular target: T2, Human Adrenal 3BHSD (Homo sapiens, UniProt P26439); experiment: Inhibition of human adrenal 3β-hydroxy-Δ^5-steroid dehydrogenase/3-keto-Δ^5-steroid isomerase (conversion of DHEA to androstenedione, human adrenal microsomes); format: biochemical; details: pH 7.5, DHEA substrate, 1 mM NAD^+, 1 to 60 minutes
T2 construct: microsomes derived from human adrenal tissues; from tissue; host or cells: human adrenal tissue (microsomes)
T2 sequence (P26439 1-372): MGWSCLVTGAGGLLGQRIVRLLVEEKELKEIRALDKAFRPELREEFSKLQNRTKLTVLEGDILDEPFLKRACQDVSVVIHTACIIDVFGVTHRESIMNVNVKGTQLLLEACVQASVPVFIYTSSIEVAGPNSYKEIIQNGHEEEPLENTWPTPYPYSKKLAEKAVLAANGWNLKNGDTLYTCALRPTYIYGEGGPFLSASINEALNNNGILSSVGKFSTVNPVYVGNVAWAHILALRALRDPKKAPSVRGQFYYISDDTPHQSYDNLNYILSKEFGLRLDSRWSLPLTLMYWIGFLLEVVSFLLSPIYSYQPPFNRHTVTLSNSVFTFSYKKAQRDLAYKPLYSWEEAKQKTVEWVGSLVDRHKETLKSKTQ
Protocol: Enzyme activities are measured using microsomes derived from human adrenal tissues. Microsomes were prepared by homogenization of the tissue followed by differential centrifugation of the homogenate. Microsome extracts were incubated with varying concentrations of dehydroepiandrosterone (DHEA), 1 mM NAD^+, and varying amounts of the compounds of Formula (I), i.e. a test compound, in pH 7.5 buffer for a period of time within the range of 1 to 60 minutes. Corresponding incubations were carried out with no test compound as a control study. The percentage of conversion of DHEA to androstenedione in the presence of test compounds compared to the corresponding conversion in the control study was estimated using HPLC with radiochemical detection.

[2] = molecular target: T3, human type 2 5α-reductase (Homo sapiens, UniProt P31213); experiment: Inhibition of human type 2 5α-reductase (conversion of testosterone to DHT, microsomes); format: biochemical; details: pH 6.0, 8 nM testosterone, 20 min preincubation, 20-40 min; read-out: IC50 Human Type 2 5AR
T3 construct: made in house; host or cells: recombinant baculovirus infected SF9 cells (microsomes); prostate tissue of BPH patients is printed as an alternative
T3 sequence (P31213 1-254): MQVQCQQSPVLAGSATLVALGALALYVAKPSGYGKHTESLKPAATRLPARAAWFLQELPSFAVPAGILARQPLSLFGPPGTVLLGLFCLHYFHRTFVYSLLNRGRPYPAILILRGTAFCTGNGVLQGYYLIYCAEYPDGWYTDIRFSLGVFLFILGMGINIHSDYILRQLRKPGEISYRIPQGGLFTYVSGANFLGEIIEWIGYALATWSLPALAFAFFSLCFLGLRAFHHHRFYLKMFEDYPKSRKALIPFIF
Protocol: as §1, §2

[3] = tested on: bovine adrenal 3β-hydroxy-Δ^5 -steroid dehydrogenase/3-keto-Δ^5 -steroid isomerase (3BHSD); details: literature (Tan; Brandt and Levy); cited from earlier work
[4] = tested on: porcine granulosa cell 3β-hydroxy-Δ^5 -steroid dehydrogenase/3-keto-Δ^5 -steroid isomerase (3BHSD); details: literature (Tan; Brandt and Levy); cited from earlier work
[5] = literature (McConnell; Rasmusson); cited from earlier work

Compound	Ki (Human Adrenal 3BHSD) [nM]	also measured
C[C@]12C=CC(=O)N[C@@H]1CC[C@@H]1[C@@H]2CC[C@]2(C)[C@@H](C(=O)NC3(c4ccc5c(c4)OCO5)CCCCC3)CC[C@@H]12 [Compound 12, 17β-N-1-(3,4-Methylenedioxyphenyl)cyclohexylcarbamoyl-4-aza-5α-androst-1-en-3-one]	10 to 1000	IC50 [1]: 10 to 1000 nM
CC(C)(C)c1ccc(C(F)(F)F)cc1NC(=O)[C@H]1CC[C@H]2[C@@H]3CC[C@H]4NC(=O)C=C[C@]4(C)[C@H]3CC[C@]12C [Compound 24, 17β-N-(2-t-Butyl-5-trifluoromethyl)phenylcarbamoyl-4-aza-5α-androst-1-en-3-one]	–	IC50 [2]: 1 to 10 nM
CN1C(=O)CC[C@]2(C)[C@H]3CC[C@]4(C)[C@@H](C(=O)Nc5cc(C(C)(C)C)ccc5C(C)(C)C)CC[C@H]4[C@@H]3CC[C@@H]12 [Compound 29, 17β-N-(2,5-Di-t-butyl)phenylcarbamoyl-4-methyl-4-aza-5α-androstan-3-one]	10 to 1000	–
CN1C(=O)CC[C@]2(C)[C@H]3CC[C@]4(C)[C@@H](C(=O)NC5(c6ccc(Cl)cc6)CCCC5)CC[C@H]4[C@@H]3CC[C@@H]12 [Compound 2, 17β-N-1-(4-Chlorophenyl)cyclopentylcarbamoyl-4-methyl-4-aza-5α-androstan-3-one]	10 to 1000	–
CN1C(=O)CC[C@]2(C)[C@H]3CC[C@]4(C)[C@@H](C(=O)Nc5cc(C(F)(F)F)ccc5C(F)(F)F)CC[C@H]4[C@@H]3CC[C@@H]12 [Compound 23, 17β-N-(2,5-bis(Trifluoromethyl))phenylcarbamoyl-4-methyl-4-aza-5α-androstan-3-one]	10 to 1000	–
CN1C(=O)CC[C@]2(C)[C@H]3CC[C@]4(C)[C@@H](C(=O)Nc5cc(C(F)(F)F)ccc5C(C)(C)C)CC[C@H]4[C@@H]3CC[C@@H]12 [Compound 26, 17β-N-(2-t-Butyl-5-trifluoromethyl)phenylcarbamoyl-4-methyl-4-aza-5α-androstan-3-one]	10 to 1000	–
CC(C)(C)c1ccc(C(C)(C)C)c(NC(=O)[C@H]2CC[C@H]3[C@@H]4CC[C@H]5NC(=O)C=C[C@]5(C)[C@H]4CC[C@]23C)c1 [Compound 27, 17β-N-(2,5-Di-t-butyl)phenylcarbamoyl-4-aza-5α-androst-1-en-3-one]	10 to 1000	–
CCN(CC)C(=O)[C@H]1CC[C@H]2[C@@H]3CC[C@H]4N(C)C(=O)CC[C@]4(C)[C@H]3CC[C@]12C [Compound 4-MA]	–	inhibition of bovine adrenal 3BHSD [3]: potent inhibition; inhibition of porcine granulosa cell 3BHSD [4]: potent inhibition; hepatotoxicity [5]: hepatotoxicity
